Converted amounts (≈) assume the structure as drawn. Structures can show the parent of a compound that is named as a salt. Where two headings read alike, the source gives them in different places.
Experiments:
[1] = tested on: Escherichia coli (ATCC25922); experiment: MIC, broth microdilution (CLSI), Escherichia coli; details: Escherichia coli, ATCC25922, read-out: E. coli ATCC 25922 MIC, Table XIII
Protocol: (§1) Initial minimal inhibitory concentration (MIC) tests were made on two bacterial strains: • Escherichia coli (ATCC25922) • Staphylococcus aureus (ATCC25923).
(§2) MIC values were determined using the standard broth microdilution procedure based on the guidelines by the Clinical and Laboratory Standards Institute (CLSI). Briefly, the compounds were dissolved in DMSO to 10 mM. They were diluted in cation-adjusted Mueller-Hinton broth (CAMHB) to four times the highest concentration tested. A serial two-fold dilution in CAMHB was done in microdilution plates. The inoculum of bacterial strain to be tested was prepared by making a suspension of colonies from an 18 to 24 hours old plate in CAMHB. The inoculum was diluted so that, after inoculation, each well contained approximately 5×10^5 CFU/mL. To a volume of 50 μl compound in CA 3 an equal volume of inoculum was added. The tray was sealed in a plastic bag and incubated at 35° C. for 16 to 20 hours. To aid in the detection of growth the dye resazurin was added to a final concentration 0.001% and incubated at room temperature for 1 h. Reduction of resazurin, and therefore bacterial growth, was seen as a change from blue to pink.

[2] = tested on: Staphylococcus aureus subsp. aureus (ATCC29213); experiment: MIC, broth microdilution (CLSI), Staphylococcus aureus ATCC29213; type: cell-based; details: Staphylococcus aureus
[3] = tested on: Staphylococcus aureus (ATCC25923); experiment: MIC, broth microdilution (CLSI), Staphylococcus aureus ATCC25923; details: Staphylococcus aureus, ATCC25923, read-out: S. aureus ATCC 25923 MIC
Protocol: as §1, §2

[4] = tested on: E. coli RNase P RNA, M1 RNA; experiment: Inhibition of bacterial RNase P activity, IC50 determination (cleavage of pATSerUG by M1 RNA); type: biochemical; details: NI: No inhibition
[5] = ATCC29213, read-out: S. aureus ATCC 29213 MIC, Table XIII
[6] = ATCC29213, Table XIII, read-out: S. aureus ATCC 29213 MIC

With `NC1CCC(NCCC(c2cccnc2)c2cn(CC3CCCCC3)c3ccccc23)CC1` (centres unmarked) [Compound 319, N1-(3-(1-(cyclohexylmethyl)-1H-indol-3-yl)-3-(pyridin-3-yl)propyl) cyclohexane-1,4-diamine hydrochloride salt] as the compound, how does the MIC [1] read?
Its MIC is 64 µg/mL.

What about the MIC [2, 5] of the same compound?
The MIC was 32 µg/mL.

What does the source list for `Cc1cccc(C(CCNCCCN2CCCC2)c2cn(C3CCCCC3)c3ccccc23)c1` (centres unmarked) [Compound 367, 3-(1-cyclohexyl-1H-indol-3-yl)-N-(3-(pyrrolidin-1-yl)propyl)-3-(m-tolyl)propan-1-amine]?
MIC [1]: > 128 µg/mL; MIC [2, 6]: 64 µg/mL (≈ 140 µM)

What does the source list for `Cc1cccc(C(CCNCC2OC(CO)C(O)C(O)C2O)c2cn(C3CCCCC3)c3ccccc23)c1` (centres unmarked) [Compound 391, 2-(((3-(1-cyclohexyl-1H-indol-3-yl)-3-(m-tolyl)propyl)amino)methyl)-6-(hydroxymethyl) tetrahydro-2H-pyran-3,4,5-triol]?
MIC [1]: 128 µg/mL (≈ 245 µM); MIC [2, 5]: 64 µg/mL (≈ 122 µM)

How did the MIC [1] turn out when `NC1CCC(NCCC(c2cccnc2)c2cn(C3CC4CCC3C4)c3ccccc23)CC1` (centres unmarked) [Compound 324, N1-(3-(1-(bicyclo[2.2.1]heptan-2-yl)-1H-indol-3-yl)-3-(pyridin-3-yl)propyl)cyclohexane-1,4-diamine hydrochloride salt] was run?
The MIC was 64 µg/mL.

What about the MIC [2, 5] of the same compound?
The MIC was 32 µg/mL.

How did the MIC [1] turn out when `Cl.Cl.c1cncc(C(CCNC2CCNCC2)c2cn(CC3CCCCC3)c3ccccc23)c1` (centres unmarked) [Compound 320, N-(3-(1-(cyclohexylmethyl)-1H-indol-3-yl)-3-(pyridin-3-yl)propyl) piperidin-4-amine hydrochloride salt] was run?
Its MIC is 128 µg/mL.

And the MIC [2, 6]?
Its MIC is 128 µg/mL.

`Cc1cccc(C(CCNCC2(CN)CC2)c2cn(C3CCCCC3)c3ccccc23)c1` (centres unmarked) [Compound 390, N-((1-(aminomethyl)cyclopropyl)methyl)-3-(1-cyclohexyl-1H-indol-3-yl)-3-(m-tolyl)propan-1-amine] was tested. Which MIC [1] did it give?
The MIC was 8 µg/mL (≈ 18.6 µM).

And the MIC [2, 6]?
Its MIC is 8 µg/mL (≈ 18.6 µM).

With `N#Cc1ccc2c(c1)c(C1CCCC(NCCCN)C1)cn2C1CCCCC1` (centres unmarked) [Compound 389, 3-(3-((3-aminopropyl)amino)cyclohexyl)-1-cyclohexyl-1H-indole-5-carbonitrile] as the compound, how does the MIC [1] read?
Its MIC is 32 µg/mL (≈ 84.5 µM).

What about the MIC [2, 6] of the same compound?
Its MIC is 16 µg/mL (≈ 42.3 µM).

What does the source list for `COC(=O)c1ccc2c(c1)c(CNCC1CCNCC1)cn2CC1CCCCC1` [Compound 304, methyl 1-(cyclohexylmethyl)-3-(((piperidin-4-ylmethyl)amino)methyl)-1H-indole-5-carboxylate hydrochloride salt]?
MIC [1]: > 128 µg/mL; MIC [2, 5]: 64 µg/mL

Which results are given for `Cl.Cl.NCCCNCCCc1cn(C2CCCCC2)c2ccc(Br)cc12` [Compound 359, N1-(3-(5-bromo-1-cyclohexyl-1H-indol-3-yl)propyl)propane-1,3-diamine hydrochloride salt]?
MIC [1]: 16 µg/mL; MIC [2, 6]: 16 µg/mL

For `Cc1cccc(C(CCNC2CCNCC2)c2cn(CC3CCOCC3)c3ccc(C#N)cc23)c1` (centres unmarked) [Compound 316, 3-(3-(piperidin-4-ylamino)-1-(m-tolyl)propyl)-1-((tetrahydro-2H-pyran-4-yl)methyl)-1H-indole-5-carbonitrile hydrochloride salt], which MIC [1] is on record?
The MIC was 64 µg/mL.

And the MIC [2, 5]?
The MIC was 64 µg/mL.

For `c1ccc2c(c1)c(CNCC1CCNCC1)cn2CC1CCCCC1` [Compound 300, 1-(1-(cyclohexylmethyl)-1H-indol-3-yl)-N-(piperidin-4-ylmethyl)methanamine hydrochloride salt], which MIC [1] is on record?
Its MIC is 128 µg/mL.

And the MIC [2, 5]?
The MIC was 128 µg/mL.

`Cl.Cl.N[C@H]1CC[C@H](NCCC(c2ccncc2)c2cn(C3CCCCC3)c3ccccc23)CC1` (some centres unmarked) [Compound 340, (1r,4r)-N1-(3-(1-cyclohexyl-1H-indol-3-yl)-3-(pyridin-4-yl)propyl) cyclohexane-1,4-diamine hydrochloride salt] was tested. Which MIC [1] did it give?
Its MIC is 128 µg/mL.

And the MIC [2, 6]?
Its MIC is 64 µg/mL.

`Cc1ccccc1C(CCNCCCN)c1cn(C2CCCC2)c2ccccc12.Cl.Cl` (centres unmarked) [Compound 342, N1-(3-(1-cyclopentyl-1H-indol-3-yl)-3-(o-tolyl)propyl)propane-1,3-diamine hydrochloride salt] was tested. Which MIC [1] did it give?
Its MIC is 8 µg/mL.

And the MIC [2, 6]?
The MIC was 16 µg/mL.

What does the source list for `Cc1cccc(C(CCNCCCN)c2cn(C3CCCCC3)c3ccc(C(=O)O)cc23)c1` (centres unmarked) [Compound 387, 3-(3-((3-aminopropyl)amino)-1-(m-tolyl)propyl)-1-cyclohexyl-1H-indole-5-carboxylic acid compound with 2,2,2-trifluoroacetaldehyde (1:2)]?
MIC [1]: > 128 µg/mL; MIC [2, 6]: 128 µg/mL (≈ 286 µM)

What does the source list for `Cc1cccc(C(CCNC2CCNCC2)c2cn(CC3CCNCC3)c3ccccc23)c1` (centres unmarked) [Compound 315, N-(3-(1-(piperidin-4-ylmethyl)-1H-indol-3-yl)-3-(m-tolyl)propyl) piperichn-4-amine hydrochloride salt]?
MIC [1]: > 128 µg/mL; MIC [2, 5]: 64 µg/mL

Which results are given for `Cl.Cl.NCCCNCCC(c1cccnc1)c1cn(CC2CCCCC2)c2ccccc12` (centres unmarked) [Compound 321, N1-(3-(1-(cyclohexylmethyl)-1H-indol-3-yl)-3-(pyridin-3-yl)propyl)propane-1,3-diamine hydrochloride salt]?
MIC [1]: 64 µg/mL; MIC [2, 6]: 32 µg/mL

Which results are given for `O=C(O)c1ccc2c(c1)c(CNCC1CCNCC1)cn2CC1CCCCC1` [Compound 305, 1-(cyclohexylmethyl)-3-(((piperidin-4-ylmethyl)amino)methyl)-1H-indole-5-carboxylic acid hydrochloride salt]?
MIC [1]: > 128 µg/mL; MIC [2, 5]: > 128 µg/mL

How did the MIC [1] turn out when `COc1cccc(C(CCNCCCN)c2cn(C3CCCCC3)c3ccc(C#N)cc23)c1` (centres unmarked) [Compound 402, 3-(3-((3-aminopropyl)amino)-1-(3-methoxyphenyl)propyl)-1-cyclohexyl-1H-indole-5-carbonitrile hydrochloride salt] was run?
Its MIC is 16 µg/mL.

And the MIC [2, 5]?
Its MIC is 8 µg/mL.

How did the MIC [1] turn out when `Cl.Cl.NCCCNCCC(c1ccncc1)c1cn(C2CC3CCC2C3)c2ccccc12` (centres unmarked) [Compound 338, N1-(3-(1-(bicyclo[2.2.1]heptan-2-yl)-1H-indol-3-yl)-3-(pyridin-4-yl)propyl)propane-1,3-diamine hydrochloride salt] was run?
The MIC was 128 µg/mL.

And the MIC [2, 6]?
The MIC was 64 µg/mL.

How did the MIC [1] turn out when `Cl.Cl.NCCCNCCC(c1cccnc1)c1cn(C2CCCCC2)c2ccccc12` (centres unmarked) [Compound 331, N1-(3-(1-cyclohexyl-1H-indol-3-yl)-3-(pyridin-3-yl)propyl)propane-1,3-diamine hydrochloride salt] was run?
Its MIC is 128 µg/mL.

What about the MIC [2, 6] of the same compound?
The MIC was 32 µg/mL.

`Cl.Cl.NC1CCC(NCCC(c2cccnc2)c2cn(C3CCCCC3)c3ccccc23)CC1` (centres unmarked) [Compound 330, N1-(3-(1-cyclohexyl-1H-indol-3-yl)-3-(pyridin-3-yl)propyl)cyclohexane-1,4-diamine hydrochloride salt] was tested. Which MIC [1] did it give?
The MIC was greater than 128 µg/mL.

And the MIC [2, 6]?
The MIC was 64 µg/mL.

With `Cc1cccc(C(CCNCC2CNCCO2)c2cn(C3CCCCC3)c3ccc(Br)cc23)c1` (centres unmarked) [Compound 405, 3-(5-bromo-1-cyclohexyl-1H-indol-3-yl)-N-(morpholin-2-ylmethyl)-3-(m-tolyl)propan-1-amine hydrochloride salt] as the compound, how does the MIC [1] read?
Its MIC is 16 µg/mL.

What about the MIC [2, 5] of the same compound?
The MIC was 8 µg/mL.

What does the source list for `O=C(CC(c1cn(CC2CCCCC2)c2ccccc12)C1CCNCC1)NC1CCNCC1` (centres unmarked) [Compound 106, 3-(1-(cyclohexylmethyl)-1H-indol-3-yl)-N,3-di(piperidin-4-yl)propanamide hydrochloride salt]?
MIC [3]: 512 µg/mL; MIC [1]: 512 µg/mL; IC50 [4]: 1220 µM

How did the MIC [3] turn out when `Cl.N[C@H]1CC[C@H](NCCC(c2cn(CC3CCCCC3)c3ccccc23)C2CCCCC2)CC1` (some centres unmarked) [Compound 204, (1rR4R)-N1-(3-cyclohexyl-3-(1-(cyclohexylmethyl)-1H-indol-3-yl)propyl) cyclohexane-1,4-diamine hydrochloride salt] was run?
Its MIC is 2 µg/mL.

And the MIC [1]?
The MIC was 4 µg/mL.

And the IC50 [4]?
Its IC50 is 50 µM.

For `Cc1cccc(C(CC(=O)NC2CCNCC2)c2cn(CC3CCCCC3)c3ccc(F)cc23)c1.Cl` (centres unmarked) [Compound 118, 3-(1-(cyclohexylmethyl)-5-fluoro-1H-indol-3-yl)-N-(piperidin-4-yl)-3-(m-tolyl)propanamide hydrochloride salt], which MIC [3] is on record?
Its MIC is 8 µg/mL.

And the MIC [1]?
Its MIC is 32 µg/mL.

What about the IC50 [4] of the same compound?
Its IC50 is 39 µM.

How did the MIC [3] turn out when `Cc1cccc(-c2ccc3c(c2)c(CC(=O)N[C@H]2CC[C@H](N)CC2)cn3CC2CCCCC2)c1.Cl` [Compound 209, N-((1R,4R)-4-aminocyclohexyl)-2-(1-(cyclohexylmethyl)-5-(m-tolyl)-1H-indol-3-yl)acetamide hydrochloride salt] was run?
The MIC was 4 µg/mL.

What about the MIC [1] of the same compound?
Its MIC is 63 µg/mL.

And the IC50 [4]?
Its IC50 is 5.4 µM.

Which results are given for `Cl.N[C@H]1CC[C@H](NC(=O)CC(c2cccc(Cl)c2)c2cn(CC3CCCCC3)c3ccccc23)CC1` (some centres unmarked) [Compound 135, N-((1r,4r)-4-aminocyclohexyl)-3-(3-chlorophenyl)-3-(1-(cyclohexylmethyl)-1H-indol-3-yl)propanamide hydrochloride salt]?
MIC [3]: 4 µg/mL; MIC [1]: 256 µg/mL; IC50 [4]: 8 µM

How did the MIC [3] turn out when `Cc1cccc(C(CCN[C@H]2CC[C@H](O)CC2)c2cn(CC3CCCCC3)c3ccccc23)c1.Cl` (stereo partly drawn) [Compound 218, (1R,4R)-4-((3-(1-(cyclohexylmethyl)-1H-indol-3-yl)-3-(m-tolyl)propyl)amino) cyclohexan-1-ol hydrochloride salt] was run?
The MIC was 8 µg/mL.

What about the MIC [1] of the same compound?
Its MIC is greater than 512 µg/mL.

What about the IC50 [4] of the same compound?
The IC50 was 45 µM.

`Cc1cccc(C(CC(=O)NC2CCNCC2)c2cn(CC3CCCC3)c3ccccc23)c1.Cl` (centres unmarked) [Compound 112, 3-(1-(cyclopentylmethyl)-1H-indol-3-yl)-N-(piperidin-4-yl)-3-(m-tolyl)propanamide hydrochloride salt] was tested. Which MIC [3] did it give?
The MIC was 16 µg/mL.

What about the MIC [1] of the same compound?
Its MIC is 64 µg/mL.

And the IC50 [4]?
Its IC50 is 68 µM.

With `CC(C)C(CC(=O)N[C@H]1CC[C@H](N)CC1)c1cn(CC2CCCCC2)c2ccccc12.Cl` (stereo partly drawn) [Compound 131, N-((1R,4R)-4-aminocyclohexyl)-3-(1-(cyclohexylmethyl)-1H-indol-3-yl)-4-methylpentanamide hydrochloride salt] as the compound, how does the MIC [3] read?
The MIC was 32 µg/mL.

What about the MIC [1] of the same compound?
The MIC was 128 µg/mL.

What about the IC50 [4] of the same compound?
The IC50 was 93 µM.
